From ChEMBL document CHEMBL1909046, “DrugMatrix in vitro pharmacology data”

What was measured:
[1] = DRUGMATRIX: GABAA, Muscimol, Central radioligand binding (ligand: [3H] Muscimol); type: cell membranes, Rattus norvegicus, Wistar, Brain, Membrane; settings: Not Active = under 50% inhibition at 10 µM
[2] = target: Protein kinase C alpha type (Homo sapiens, UniProt P17252); type: cell-based; settings: sf9;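 note: inhibition of PKCalpha kinase activity measured in an enzyme assay with histone as the phosphorylation substrate; in other assays of this panel Not Active means under 50% inhibition at 10 µM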
[3] = target: T1, Type-2 angiotensin II receptor (Homo sapiens, UniProt P50052); experiment: biochemical; type: cell-based, CHO-K1; settings: cho-k1; note: in other assays of this panel Not Active means under 50% inhibition at 10 µM
T1 sequence (P50052 whole entry): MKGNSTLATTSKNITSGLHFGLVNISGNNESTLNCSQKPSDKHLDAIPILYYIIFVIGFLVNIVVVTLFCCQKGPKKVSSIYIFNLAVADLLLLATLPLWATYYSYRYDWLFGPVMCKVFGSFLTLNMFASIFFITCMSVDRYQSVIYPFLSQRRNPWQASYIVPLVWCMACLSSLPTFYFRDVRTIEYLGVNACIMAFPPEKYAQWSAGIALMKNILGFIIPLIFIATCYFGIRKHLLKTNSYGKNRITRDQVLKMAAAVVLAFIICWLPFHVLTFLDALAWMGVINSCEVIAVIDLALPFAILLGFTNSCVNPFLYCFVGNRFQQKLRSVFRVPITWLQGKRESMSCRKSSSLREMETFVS

[4] = target: Glycine receptor (Rattus norvegicus, UniProt P22771+P24524+P07727+P20781); type: cell membranes, Wistar, Spinal cord, Membrane; note: in other assays of this panel Not Active means under 50% inhibition at 10 µM
[5] = target: Sodium-dependent dopamine transporter (Homo sapiens, UniProt Q01959); experiment: DRUGMATRIX: Dopamine Transporter radioligand binding (ligand: [125I] RTI-55); type: cell membranes, CHO-K1, Membrane; settings: cho-k1; Not Active = under 50% inhibition at 10 µM
Sequence of Sodium-dependent dopamine transporter (Q01959 whole entry): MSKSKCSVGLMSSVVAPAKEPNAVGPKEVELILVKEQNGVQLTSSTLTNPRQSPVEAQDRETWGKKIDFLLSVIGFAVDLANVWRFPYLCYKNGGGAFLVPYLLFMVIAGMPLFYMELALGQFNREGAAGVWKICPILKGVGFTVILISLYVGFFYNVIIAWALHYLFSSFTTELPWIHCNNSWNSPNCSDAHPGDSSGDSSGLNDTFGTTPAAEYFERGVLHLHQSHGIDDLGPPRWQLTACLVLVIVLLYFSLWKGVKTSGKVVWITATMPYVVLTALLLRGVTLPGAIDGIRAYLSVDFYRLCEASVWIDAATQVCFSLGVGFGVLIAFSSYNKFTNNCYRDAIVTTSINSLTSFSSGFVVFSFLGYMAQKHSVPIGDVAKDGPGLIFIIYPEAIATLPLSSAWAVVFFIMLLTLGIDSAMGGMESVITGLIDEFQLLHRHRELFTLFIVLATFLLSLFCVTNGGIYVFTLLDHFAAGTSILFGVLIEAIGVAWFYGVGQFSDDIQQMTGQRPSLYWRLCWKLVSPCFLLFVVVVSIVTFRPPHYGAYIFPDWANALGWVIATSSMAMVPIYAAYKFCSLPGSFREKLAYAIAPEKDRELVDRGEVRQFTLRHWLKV

[6] = target: 5-hydroxytryptamine receptor 1B (Rattus norvegicus, UniProt P28564); type: cell membranes, Wistar, Cerebral cortex, Membrane; note: in other assays of this panel Not Active means under 50% inhibition at 10 µM
Sequence of 5-hydroxytryptamine receptor 1B (P28564 whole entry): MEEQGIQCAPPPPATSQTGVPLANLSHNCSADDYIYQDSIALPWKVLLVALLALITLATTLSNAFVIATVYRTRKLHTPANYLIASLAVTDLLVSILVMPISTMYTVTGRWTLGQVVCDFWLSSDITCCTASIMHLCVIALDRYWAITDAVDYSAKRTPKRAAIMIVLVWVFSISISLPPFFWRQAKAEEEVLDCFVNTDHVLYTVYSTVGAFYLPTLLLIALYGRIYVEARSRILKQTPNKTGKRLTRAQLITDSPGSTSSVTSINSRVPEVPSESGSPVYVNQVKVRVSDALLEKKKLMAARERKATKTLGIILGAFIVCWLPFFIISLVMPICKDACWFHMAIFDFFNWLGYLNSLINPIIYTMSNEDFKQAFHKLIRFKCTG

[7] = DRUGMATRIX: GABAA, Chloride Channel, TBOB radioligand binding (ligand: [3H] TBOB); type: cell membranes, Rattus norvegicus, Wistar, Cerebral cortex, Membrane; settings: Not Active = under 50% inhibition at 10 µM
[8] = target: T2, Cysteinyl leukotriene receptor 1 (Homo sapiens, UniProt Q9Y271); type: cell membranes, Membrane; settings: cho-k1; note: in other assays of this panel Not Active means under 50% inhibition at 10 µM
T2 sequence (Q9Y271 whole entry): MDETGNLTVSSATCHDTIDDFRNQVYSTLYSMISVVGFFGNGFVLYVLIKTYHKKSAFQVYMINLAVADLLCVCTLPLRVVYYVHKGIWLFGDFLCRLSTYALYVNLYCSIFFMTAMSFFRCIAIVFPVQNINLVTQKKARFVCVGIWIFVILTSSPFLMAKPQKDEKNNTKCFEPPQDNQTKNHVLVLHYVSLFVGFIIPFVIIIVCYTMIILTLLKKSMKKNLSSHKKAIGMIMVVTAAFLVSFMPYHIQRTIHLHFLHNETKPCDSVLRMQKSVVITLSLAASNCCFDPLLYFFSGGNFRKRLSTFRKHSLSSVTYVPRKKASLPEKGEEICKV

C[C@]12CC[C@@H]3c4ccc(O)cc4CC[C@H]3[C@@H]1C[C@@H](O)[C@@H]2O [ESTRIOL]
Not Active: IC50 [1] | Ki [1] | IC50 [2] | IC50 [3] | IC50 [4] | IC50 [5] | IC50 [6] | IC50 [7] | Ki [7] | IC50 [8]

C#C[C@]1(O)CC[C@H]2[C@@H]3CCC4=CC(=O)CC[C@]4(C)[C@H]3CC[C@@]21C [ETHISTERONE]
Not Active: IC50 [1] | Ki [1] | IC50 [2] | IC50 [3] | IC50 [4] | IC50 [5] | IC50 [6] | IC50 [7] | Ki [7] | IC50 [8]

CC(O)(P(=O)(O)O)P(=O)(O)O [ETIDRONIC ACID]
Not Active: IC50 [1] | Ki [1] | IC50 [2] | IC50 [3] | IC50 [4] | IC50 [5] | IC50 [6] | IC50 [7] | Ki [7] | IC50 [8]

CC(C)(C(=O)O)c1ccc(C(O)CCCN2CCC(C(O)(c3ccccc3)c3ccccc3)CC2)cc1 (stereo not given) [FEXOFENADINE]
Not Active: IC50 [1] | Ki [1] | IC50 [2] | IC50 [3] | IC50 [4] | IC50 [5] | IC50 [6] | IC50 [7] | Ki [7] | IC50 [8]

CN1CCN(c2c(F)cc3c(=O)c(C(=O)O)cn(CCF)c3c2F)CC1 [FLEROXACIN]
Not Active: IC50 [1] | Ki [1] | IC50 [2] | IC50 [3] | IC50 [4] | IC50 [5] | IC50 [6] | IC50 [7] | Ki [7] | IC50 [8]

O=c1[nH]c(=O)n([C@H]2C[C@H](O)[C@@H](CO)O2)cc1F [FLOXURIDINE]
Not Active: IC50 [1] | Ki [1] | IC50 [2] | IC50 [3] | IC50 [4] | IC50 [5] | IC50 [6] | IC50 [7] | Ki [7] | IC50 [8]

COC(=O)Nc1nc2cc(C(=O)c3ccc(F)cc3)ccc2[nH]1 [FLUBENDAZOLE]
Not Active: IC50 [1] | Ki [1] | IC50 [2] | IC50 [3] | IC50 [4] | IC50 [5] | IC50 [6] | IC50 [7] | Ki [7] | IC50 [8]

CC(=O)OCC(=O)[C@@]1(O)CC[C@H]2[C@@H]3CCC4=CC(=O)CC[C@]4(C)[C@@]3(F)[C@@H](O)C[C@@]21C [FLUDROCORTISONE ACETATE]
Not Active: IC50 [1] | Ki [1] | IC50 [2] | IC50 [3] | IC50 [4] | IC50 [5] | IC50 [6] | IC50 [7] | Ki [7] | IC50 [8]

CCOC(=O)c1ncn2c1CN(C)C(=O)c1cc(F)ccc1-2 [FLUMAZENIL]
Not Active: IC50 [1] | Ki [1] | IC50 [2] | IC50 [3] | IC50 [4] | IC50 [5] | IC50 [6] | IC50 [7] | Ki [7] | IC50 [8]

CC(=O)OCC(=O)[C@@]12OC(C)(C)O[C@@H]1C[C@H]1[C@@H]3C[C@H](F)C4=CC(=O)C=C[C@]4(C)[C@@]3(F)[C@@H](O)C[C@@]12C [FLUOCINONIDE]
Not Active: IC50 [1] | Ki [1] | IC50 [2] | IC50 [3] | IC50 [4] | IC50 [5] | IC50 [6] | IC50 [7] | Ki [7] | IC50 [8]

O=C(O)P(=O)(O)O [FOSCARNET]
Not Active: IC50 [1] | Ki [1] | IC50 [2] | IC50 [3] | IC50 [4] | IC50 [5] | IC50 [6] | IC50 [7] | Ki [7] | IC50 [8]

Cc1ccc(C)c(OCCCC(C)(C)C(=O)O)c1 [GEMFIBROZIL]
Not Active: IC50 [1] | Ki [1] | IC50 [2] | IC50 [3] | IC50 [4] | IC50 [5] | IC50 [6] | IC50 [7] | Ki [7] | IC50 [8]
